Test results from US20140284278A1, “CATIONIC DISPLACER MOLECULES FOR HYDROPHOBIC DISPLACEMENT CHROMATOGRAPHY” (SACHEM, INC., priority 2011, published 2014).
Values after ≈ are worked out from the molar mass of the structure shown.

Legend:
[1] = amine pH-buffers with low pKa values; cited from earlier work
[2] = Partitioning in two-phase diethyl ether-water extraction; type: physicochemical
Method: This is a modification of Method A based on the partitioning behavior in a two-phase diethyl ether-water extraction. […] 53.4 g Purified and recrystallized N-(4-fluorobenzyl)-N-decylpyrrolidinium chloride (150 mmole, fw=355.97) is placed in a 250 mL separatory funnel followed by 53.4 g degassed, deionized water. The flask is shaken until a clear, viscous solution is formed (˜1.5 M solution). 25.6 g Trifluoroacetic (225 mmole, fw=114.02) is added to the mixture which is vigorously mixed. Immediately two phases form with the product in the lower layer. 110 mL peroxide-free diether ether is added to the separatory funnel and the mixture is vigorously mixed again. After 2 hours, the phases fully separate with the product in the upper ether phase. The lower phase is discarded and the upper is retained. 55 mL 1% trifluoroacetic acid in distilled water is added, the mixture is vigorously mixed and phases are again allowed to separate. Again, the upper phase is retained, dried over anhydrous magnesium sulfate, filtered and placed on a rotary evaporator in order to remove the ether along with residual HCl, trifluoroacetic acid and water. This procedure yields 59.2 g (91%) of a pure, clear, viscous oil (ionic liquid). This material is suitable for use as a displacer. HPLC purity of the quat cation is essentially identical to the starting material. […]

[3] = Hygroscopicity of crystalline salt in air; type: physicochemical; settings: crystalline substance, absorbs moisture from the air
Method: 380.5 g Purified N-decylpyrrolidine (1.8 mole, fw=211.39) is added to 720 mL stirring acetonitrile in a 2 L, 4-neck round-bottom flask that is equipped with a heating mantle, mechanical stirrer, 500 mL addition funnel, reflux condensor and teflon-coated thermocouple. The reaction is carried out under a nitrogen atmosphere with a slow N2 purge. The stirring mixture is heated to 50° C., and 289.1 g freshly distilled 4-fluorobenzyl chloride (2.0 mole, fw=144.58) is added in a dropwise fashion over a period of about 60 minutes. The reaction mixture is then heated to about 80° C. for 8-12 hours and periodically monitored by HPLC (Method 10a) in order to ensure that the starting amine is entirely consumed. The reaction mixture is cooled to room temperature, filtered through sintered-glass and placed on a rotary evaporator to remove the solvent (acetonitrile). 1.0 L Methyl t-butyl ether (MTBE) is added portionwise with mechanical stirring to the sticky orange-yellow reaction residue. Once this mixture is fully suspended in the solvent, it is transferred to a clean 4 L Erlenmeyer flask, and an additional amount of MTBE (1.9 L) is slowly added with stirring. […] A sharp melting point in a glass capillary is measured at 137-138° C. when measured between 90-140° C. at the heating rate of 1.0° C./minute. […]

Solubility in water = settings: pure water
[4] = cited from earlier work

CN(C)CCN(C)C [N,N,N′,N′-tetramethylethylene-diamine]
pKa [1]: 5.9

CCCCCCCCCC[N+]1(Cc2ccc(F)cc2)CCCC1.[Cl-] [N-(4-Fluorobenzyl)-N-decylpyrrolidinium Chloride]
partitioning behavior [2]: strongly partitions into the water layer
hygroscopicity [3]: very hygroscopic
solubility (Solubility in water): 2000 mM

CCCCCCCCCC[N+]1(Cc2ccc(F)cc2)CCCC1.O=C([O-])C(F)(F)F [N-(4-Fluorobenzyl)-N-decylpyrrolidinium Trifluoroacetate]
partitioning behavior [2]: strongly partitions into the ether layer
solubility (Solubility in water): ~120 mM

CCN1CCNCC1 [N-ethylpiperazine]
pKa [1]: 5.0

C1CCCCC1 [cyclohexane]
solubility in water [4]: ~0.01 mM (≈ 0.842 µg/mL)

c1ccc2ccccc2c1 [naphthalene]
solubility in water [4]: 0.2 mM (≈ 25.6 µg/mL)

C1CC[C@H]2CCCC[C@@H]2C1 [trans-decalin]
solubility in water [4]: < 0.001 mM
